This is an account of results in patent US11021475B2, “Amide-substituted heterocyclic compounds useful as modulators of IL-12, IL-23 and/or IFN alpha responses” (Bristol-Myers Squibb Company, priority 2012, dated 2021).

Test [1] relates to IFNα stimulated Kit225 T cells (STAT-dependent luciferase reporter). In words: Kit225 T cell assay, IFNα-stimulated STAT-dependent luciferase reporter. Type of test: cell-based, human. As to conditions: 200 U/mL human recombinant IFNα, 5-6 hours, read-out: IFNα Kit225 Reporter (IC50). In outline: (§1)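 Kit225 T cells carrying a stable STAT-dependent luciferase reporter, stimulated 5-6 h with 20 ng/mL human IL-23 or 200 U/mL human IFNα. Luminescence read out; % inhibition derived against unstimulated (100%) and no-inhibitor (0%) controls.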
A general note: A reporter such as luciferase makes a cellular process visible.

Test [2] has as its system IL-23 stimulated Kit225 T cells (STAT-dependent luciferase reporter). In words: Kit225 T cell assay, IL-23-stimulated STAT-dependent luciferase reporter. Type of test: cell-based, human. As to conditions: 20 ng/mL human recombinant IL-23, 5-6 hours, read-out: IL-23 Kit225 Reporter (IC50). In a few lines: as §1
Test [3] deals with His-tagged protein corresponding to amino acids 575-869 of human Tyk2 (Homo sapiens (Human), UniProt P29597). Description: Probe displacement assay (scintillation proximity, radiolabeled probe). Type of test: binding. The following applies: 2.5 nM Tyk2 (575-869), 40 nM [3H] probe, 30 minutes at room temperature. As for the experimental part:
The probe displacement assay is conducted as follows: In a […], test compounds along with recombinantly expressed His-tagged protein corresponding to amino acids 575-869 of human Tyk2 (sequence shown below) at 2.5 nM, 40 nM ((R)—N-(1-(3-(8-methyl-5-(methylamino)-8H-imidazo[4,5-d]thiazolo[5,4-b]pyridin-2-yl)phenyl)ethyl)-2-([^3H]methylsulfonyl)benzamide) (preparation described below) and 80 μg/mL Copper His-Tag scintillation proximity assay beads (Perkin Elmer, Catalog #RPNQ0095) in 50 mM HEPES, pH 7.5, containing 100 μg/mL bovine serum albumin and 5% DMSO were incubated for 30 minutes at room temperature.
Protein Sequence of recombinant Hig-tagged Tyk2 (575-869):
The preparation of radiolabeled probe, (R)—N-(1-(3-(8-methyl-5-(methylamino)-8H-imidazo[4,5-d]thiazolo[5,4-b]pyridin-2-yl)phenyl)ethyl)-2-([^3H]methylsulfonyl)benzamide, was performed as described below.
Background: SPA uses beads or plates that emit light when radiolabelled molecules are held near them.

The structures appear in SMILES notation. Where two headings read alike, the source gives them in different places.

Sequence of His-tagged protein corresponding to amino acids 575-869 of human Tyk2 (P29597 other isoform, or with tags, fused parts or gaps): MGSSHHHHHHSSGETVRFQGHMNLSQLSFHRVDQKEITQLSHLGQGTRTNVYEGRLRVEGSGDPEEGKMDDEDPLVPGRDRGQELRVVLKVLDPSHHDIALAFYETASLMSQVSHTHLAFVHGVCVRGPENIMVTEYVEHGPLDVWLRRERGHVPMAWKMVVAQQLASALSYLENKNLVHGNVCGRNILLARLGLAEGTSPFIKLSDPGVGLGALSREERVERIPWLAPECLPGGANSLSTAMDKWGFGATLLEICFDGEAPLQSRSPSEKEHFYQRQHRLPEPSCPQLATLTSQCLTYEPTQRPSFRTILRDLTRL

Turning to `CNC(=O)c1nnc(NC(=O)C2CC2)cc1Nc1cccc(-c2cnc(C)s2)c1OC` [Example 160], the IC50 is 310 nM in test [1] and 410 nM in test [2]. This compound gave an EC50 in test [3] of 70 nM.
In the same order, the values of `CNC(=O)c1nnc(Nc2cc(C)nc(C)n2)cc1Nc1cccc(-c2nc(C)n(C)n2)c1OC` [Example 183] are 3.67 nM, 30 nM and 5.72 nM.
In the same order, the values of `CNC(=O)c1nnc(NC(=O)C2CC2)cc1Nc1cccc(-c2nnc(C)s2)c1OC` [Example 154] are 430 nM, 590 nM and 90 nM.
For `CNC(=O)c1nnc(Nc2cc(COC)ccn2)cc1Nc1ccccc1S(C)(=O)=O` [Example 51], in that order: 20 nM, 40 nM and 7.19 nM.
For the compound `CNC(=O)c1nnc(NC(=O)C2CC2)cc1Nc1cccc(-c2cc(C)no2)c1OC` [Example 194], the IC50 in test [1] came to 410 nM; in test [2], 630 nM. Also, the EC50 in test [3] was 80 nM.
`CNC(=O)c1nnc(Nc2ccccn2)cc1Nc1cccc(-c2nnc(C)o2)c1OC` [Example 151]: the IC50 in test [1] and in test [2] was 20 nM in each case. Besides, a half-maximal response in test [3] (EC50) required 7.22 nM.
In the case of `CNC(=O)c1nnc(Nc2cnccn2)cc1Nc1cccc(-c2ncccn2)c1OC` [Example 112], the IC50 came out at 3.72 nM in test [1] and 7.49 nM in test [2]. Also, the EC50 in test [3] was 1.94 nM.
In the same order, the values of `CNC(=O)c1nnc(Nc2ccccn2)cc1Nc1ccccc1S(C)(=O)=O` [Example 16] are 20 nM, 40 nM and 6.57 nM.
For `CNC(=O)c1nnc(NC(=O)C2CC2)cc1Nc1cccc(-c2cnn(CCF)c2)c1OC` [Example 186], in that order: 80 nM, 170 nM and 60 nM.
In the same order, the values of `CCNC(=O)c1nnc(Nc2ccc(F)cn2)cc1Nc1ccccc1S(C)(=O)=O` [Example 4] are 1150 nM, 2300 nM and 130 nM.
`CNC(=O)c1nnc(Nc2ccccn2)cc1Nc1cccc(-c2nnc(C)s2)c1OC` [Example 155]: the half-maximal inhibitory concentration (IC50) in test [1] and in test [2] was 30 nM each time. For the same compound, in test [3], a half-maximal response (EC50) required 7.13 nM.
As for `CNC(=O)c1nnc(Nc2ccccn2)cc1Nc1cccc(C(=O)NCCCO)c1OC` [Example 170], the concentration for half-maximal inhibition (IC50) in test [1] was 390 nM; in test [2], 230 nM.
As to `CCc1ccnc(Nc2cc(Nc3ccccc3S(C)(=O)=O)c(C(=O)NC)nn2)c1` [Example 36], the results for the IC50 in test [1] and in test [2] were 30 nM and 110 nM, respectively.
Take `CNC(=O)c1nnc(Nc2ccccn2)cc1Nc1cccc(-c2ncc(C)s2)c1OC` [Example 117]: the IC50 in test [1] was found to be 30 nM; in test [2] it was 80 nM.
With `[2H]C([2H])([2H])NC(=O)c1nnc(NC(=O)C2CC2)cc1Nc1cccc(-c2cn[nH]c2)c1OC` [Example 185], the IC50 in test [1] (KIT225) turned out to be 120 nM; in test [2] (KIT225), 280 nM.
In the same order, the values of `[2H]C([2H])([2H])NC(=O)c1nnc(NC(=O)C2CC2)cc1Nc1cccc(-c2c[nH]nn2)c1OC` [Example 192] are 30 nM and 40 nM.
Turning to `CNC(=O)c1nnc(Nc2ccccn2)cc1Nc1cccc(-c2nnnn2C)c1OC` [Example 145], the results for the IC50 in test [1] and in test [2] were 8.44 nM and 10 nM, respectively.
With `[2H]C([2H])([2H])NC(=O)c1nnc(Nc2ccccn2)cc1Nc1cccc(-c2nc(C)no2)c1OC` [Example 163, 4-((2-methoxy-3-(3-methyl-1,2,4-oxadiazol-5-yl)phenyl)amino)-N-trideutero-methyl-6-(pyridin-2-ylamino)pyridazine-3-carboxamide], the IC50 in test [1] (KIT225) came out at 30 nM; in test [2] (KIT225) it was 40 nM.
In the case of `CNC(=O)c1nnc(Nc2cc(C)n(C)n2)cc1Nc1ccccc1S(C)(=O)=O` [Example 24], the values for the IC50 in test [1] and in test [2] were 50 nM and 60 nM, respectively.

A word on the IC50: it is the point on the concentration scale where inhibition reaches its midpoint. In general, EC50 refers to the midpoint of the concentration-response curve. A lower EC50 goes with higher potency in that assay.
